Measured values published in patent publication US7964406B2, “Means and methods for producing a stabilized cell of interest” (Academisch Medisch Centrum Bij De Universiteit Van Amsterdam, priority 2004, dated 2011).

Experiments:
[1] = test system: human tonsillar B cells; assay: 4HT-dependent growth of CA-STAT5b-ER transduced tonsillar B cells; assay type: cell-based; conditions: 1 μM 4HT, CD40L, IL-2 and IL-4
Method: FIG. 19. Characteristics of B cells transduced with CA-STAT5b-ER. (A) Tonsil B cells were cultured in CD40L, IL-2 and IL-4 and transduced with CA-STAT5b-ER-IRES-ΔNGFR (circles) or with control-IRES-ΔNGFR (squares). Both cultures were split, one part was cultured without (open symbols) and another with 1 μM 4HT (closed symbols). At the indicated time points after transduction percentages of transduced cells were determined by flow cytometric analysis after staining with an APC-conjugated antibody against NGFR. Absolute cell number counts were determined based on the percentages of ΔNGFR^+ cells. The experiment shown is representative for 5 independent experiments performed. (B) CA-STAT5b-ER-IRES-ΔNGFR transduced B cells 30 days after transduction were cultured for 7 days in the absence of 4HT. Equal numbers of cells were cultured then either in the presence (closed squares) or absence of 4HT (open squares) and absolute cell numbers were determined. Shown is a representative experiment out of 3. (C) Flow cytometric analysis of a representative culture of CA-STAT5b-ER-IRES-ΔNGFR transduced B cells cultured in CD40L, IL-2 and IL-4 in the presence of 4HT. Isotype control stainings are shown as thin histograms.
We then transduced human tonsillar B cells with the CA-STAT5b-ER-IRES-ΔNGFR construct and examined the effect of 4HT on the proliferative capacity of these B cells. […]

[2] = test system: BCL-6; assay: BCL-6 expression in STAT5b-ER+ tonsil B cells after 4HT, RT-PCR and Western blot; assay type: cell-based, human; conditions: 4HT added back for 8 hr after 10 days without
Method: FIG. 21. Induction of BCL-6 expression by STAT5. (A) RT-PCR analysis of BCL-6 and HPRT in B cells transduced with CA-STAT5b-ER cultured in CD40L, IL-2 and IL-4 with 4HT. After incubation of the cells without 4HT for 10 days, 4HT was added back for 8 hr in the presence or absence of cyclohexamide (CH). This experiment was repeated 3 times with similar results. (B) Expression of BCL-6 protein in CA-STAT5b-ER-transduced B cells cultured in the presence of 4HT constantly or absence of 4HT for 12 days as determined by Western blot analysis using an anti-BCL-6 antibody. An antibody against actin was used as a protein loading control. Similar results were obtained in 3 independent experiments. (C) Dual luciferase reporter assay. Part of the promoter region of the BCL-6 gene (position −657/+471 bp) was linked to the firefly (P. pyralis) luciferase coding sequence and subcloned into the pGL3 vector. One potential STAT5 binding site in this promoter region (−548/−566 bp) was mutated from […] to […], and two different clones (BCL-6* and BCL-6**) were subcloned into the pGL3-firefly luciferase backbone. These pGL3 constructs were cotransfected with LZRS-CA-STAT5b and the Renilla luciferase containing vector into 293T cells. Both luciferase activities were measured sequentially from a single sample and relative luciferase units were calculated and corrected for the Renilla luciferase activity. […]

4-Hydroxy-Tamoxifen [4HT]
growth selection of CA-STAT5b-ER expressing cells (ΔNGFR+) [1]: only occurred in the presence of 4HT
expression of the BCL-6 transcript with 4HT versus without [2]: substantially higher
